What was measured:
[1] = target: Prostaglandin G/H synthase 1 (Homo sapiens) (UniProt P23219); test: Inhibition of COX-1 (unknown origin)
[2] = target: Prostaglandin G/H synthase 2 (Homo sapiens) (UniProt P35354); test: Inhibition of COX-2 (unknown origin)
[3] = target: Poly [ADP-ribose] polymerase 1 (Homo sapiens, UniProt P09874); test: Displacement of [125I]KX1 from PARP1 in human OVCAR-8 cells incubated for 1 hr by wizard gamma counter analysis
Chain of Poly [ADP-ribose] polymerase 1 (P09874 whole entry): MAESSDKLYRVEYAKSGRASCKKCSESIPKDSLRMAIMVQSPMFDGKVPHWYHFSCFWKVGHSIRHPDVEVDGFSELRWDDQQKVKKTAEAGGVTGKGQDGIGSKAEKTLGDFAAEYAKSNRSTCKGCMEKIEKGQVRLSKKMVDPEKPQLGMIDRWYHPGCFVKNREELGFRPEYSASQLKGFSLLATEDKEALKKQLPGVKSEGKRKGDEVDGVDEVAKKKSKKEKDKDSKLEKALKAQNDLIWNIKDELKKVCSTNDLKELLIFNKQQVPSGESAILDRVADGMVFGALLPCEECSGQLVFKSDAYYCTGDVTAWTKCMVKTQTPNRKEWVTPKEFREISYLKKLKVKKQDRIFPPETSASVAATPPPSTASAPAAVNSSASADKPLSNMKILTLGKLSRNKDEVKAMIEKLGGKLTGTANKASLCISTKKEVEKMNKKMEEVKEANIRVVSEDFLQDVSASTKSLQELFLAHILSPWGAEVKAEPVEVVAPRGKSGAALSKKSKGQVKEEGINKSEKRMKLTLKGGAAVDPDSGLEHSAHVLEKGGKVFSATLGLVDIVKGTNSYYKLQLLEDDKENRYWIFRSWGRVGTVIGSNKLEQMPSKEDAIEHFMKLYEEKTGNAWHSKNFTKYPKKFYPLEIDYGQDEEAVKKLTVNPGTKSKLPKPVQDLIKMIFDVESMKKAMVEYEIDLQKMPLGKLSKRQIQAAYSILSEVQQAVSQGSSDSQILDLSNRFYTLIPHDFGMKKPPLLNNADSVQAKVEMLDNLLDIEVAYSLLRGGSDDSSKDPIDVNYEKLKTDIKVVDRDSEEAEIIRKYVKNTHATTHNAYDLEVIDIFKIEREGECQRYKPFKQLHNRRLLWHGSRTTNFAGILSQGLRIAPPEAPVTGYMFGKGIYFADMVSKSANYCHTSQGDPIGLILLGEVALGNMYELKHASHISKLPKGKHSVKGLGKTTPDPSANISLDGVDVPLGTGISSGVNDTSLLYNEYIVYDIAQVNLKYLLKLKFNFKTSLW

Chain of Prostaglandin G/H synthase 2 (Homo sapiens) (P35354 whole entry, looked up): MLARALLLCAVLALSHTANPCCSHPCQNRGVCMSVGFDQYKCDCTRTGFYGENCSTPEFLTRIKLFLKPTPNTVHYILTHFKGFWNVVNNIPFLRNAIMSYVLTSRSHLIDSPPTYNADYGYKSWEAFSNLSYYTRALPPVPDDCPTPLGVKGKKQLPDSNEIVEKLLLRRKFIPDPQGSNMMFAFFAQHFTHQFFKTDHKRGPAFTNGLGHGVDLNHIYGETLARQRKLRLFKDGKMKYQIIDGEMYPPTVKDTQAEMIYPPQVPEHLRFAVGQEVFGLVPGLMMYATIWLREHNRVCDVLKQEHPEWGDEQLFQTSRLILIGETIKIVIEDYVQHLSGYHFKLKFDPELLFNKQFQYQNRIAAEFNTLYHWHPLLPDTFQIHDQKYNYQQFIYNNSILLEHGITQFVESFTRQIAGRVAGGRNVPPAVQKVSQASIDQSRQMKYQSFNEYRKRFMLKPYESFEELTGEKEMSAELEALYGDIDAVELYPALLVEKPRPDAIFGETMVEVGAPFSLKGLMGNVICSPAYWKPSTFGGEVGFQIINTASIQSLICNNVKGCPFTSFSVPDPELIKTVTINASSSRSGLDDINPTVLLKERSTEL

Row | SMILES | IC50 [1] [µM] | IC50 [2] [nM] | IC50 [3] [nM]
1 | COc1ccc(-c2nc(N3N=C(c4ccc(F)cc4)CCC3=O)n(C)c(=O)c2C#N)cc1 | 115 | 1400 | 
2 | COC1CC(NC(=O)c2cc(Cc3n[nH]c(=O)c4ccccc34)ccc2F)C1 (stereo not drawn) |  |  | 44
